According to ChEMBL document CHEMBL4808195, “Discovery of heterocyclic substituted dihydropyrazoles as potent anticancer agents” (Bioorg Med Chem Lett, 2021):

How the values were obtained:
HCC1806 [1] = test: Anticancer activity against human HCC1806 cells assessed as inhibition of cell growth at 10 uM measured by SRB method; type: functional
MDA-MB-231 = test: Anticancer activity against human MDA-MB-231 cells assessed as inhibition of cell growth at 10 uM measured by SRB method; type: functional
NCI-H1975 = test: Anticancer activity against human NCI-H1975 cells assessed as inhibition of cell growth at 10 uM measured by SRB method; type: functional
HCC1806 [2] = test: Anticancer activity against human HCC1806 cells assessed as inhibition of cell proliferation; type: functional, cell-based
HeLa = test: Anticancer activity against human HeLa cells assessed as inhibition of cell proliferation; type: functional, cell-based
A549 = test: Anticancer activity against human A549 cells assessed as inhibition of cell proliferation; type: functional, cell-based
HCT-116 = test: Anticancer activity against human HCT-116 cells assessed as inhibition of cell proliferation; type: functional, cell-based

IC50 (HCC1806 [2]) | IC50 (HeLa) | IC50 (A549) | IC50 (HCT-116) | SMILES | inhibition at 10 µM (HCC1806 [1]) | inhibition at 10 µM (MDA-MB-231) | inhibition at 10 µM (NCI-H1975)
– | – | – | – | CC(=O)N1N=C(c2ccc(N3CCN(C)CC3)cc2)CC1c1ccc(N(C)C)cc1 (stereo unspecified) | -0.8% | -1% | -1.9%
– | – | – | – | COC(=O)CC(=O)N1N=C(c2ccc(-n3cncn3)cc2)CC1c1ccc(N(C)C)cc1 (stereo unspecified) | -7.8% | 6.8% | 1.5%
– | – | – | – | CC(=O)N1N=C(c2ccc(-n3cncn3)cc2)CC1c1ccc(N(C)C)cc1 (stereo unspecified) | 11% | 7.4% | -0.3%
– | – | – | – | CN(C)c1ccc(C2CC(c3ccc(-n4cncn4)cc3)=NN2S(=O)(=O)c2ccc(OC(F)(F)F)cc2)cc1 (stereo unspecified) | 25.2% | 18.5% | 11.1%
– | – | – | – | CN(C)c1ccc(C2CC(c3ccc(-n4ccnc4)cc3)=NN2S(=O)(=O)c2ccc([N+](=O)[O-])cc2)cc1 (stereo unspecified) | 46.6% | 41.5% | 53%
– | – | – | – | C=C(C)C(=O)N1N=C(c2ccc(-n3ccnc3)cc2)CC1c1ccc(N(C)C)cc1 (stereo unspecified) | 1.6% | 4.3% | -3.7%
– | – | – | – | CN(C)c1ccc(C2CC(c3ccc(-n4cncn4)cc3)=NN2)cc1 (stereo unspecified) | 6.8% | 7% | -3.3%
5.4 µM | > 100 µM | > 10 µM | > 10 µM | CN1CCN(c2ccc(C3=NN(C(=O)c4ccc(C(F)(F)F)cc4)C(c4ccc(N(C)C)cc4)C3)cc2)CC1 (stereo unspecified) | 84.1% | 55.4% | 93.2%
– | – | – | – | CN(C)c1ccc(C2CC(c3ccc(-n4cncn4)cc3)=NN2S(=O)(=O)c2ccc(C(F)(F)F)cc2)cc1 (stereo unspecified) | 37% | 15.3% | 5.5%
– | – | – | – | CN(C)c1ccc(C2CC(c3ccc(-n4cncn4)cc3)=NN2S(C)(=O)=O)cc1 (stereo unspecified) | 10.8% | 7.8% | -3.1%
– | – | – | – | CN(C)c1ccc(C2CC(c3ccc(-n4ccnc4)cc3)=NN2)cc1 (stereo unspecified) | -20.9% | 7.6% | 0.1%
– | – | – | – | CN(C)c1ccc(C2CC(c3ccc(-n4cncn4)cc3)=NN2C(=O)c2ccc(F)cc2)cc1 (stereo unspecified) | 15.6% | 12.5% | -1.1%
– | – | – | – | CN1CCN(c2ccc(C3=NN(C(=O)Cc4ccccc4)C(c4ccc(N(C)C)cc4)C3)cc2)CC1 (stereo unspecified) | 1% | 1.9% | -2.8%
– | – | – | – | CN1CCN(c2ccc(C3=NN(S(=O)(=O)c4ccc(C(F)(F)F)cc4)C(c4ccc(N(C)C)cc4)C3)cc2)CC1 (stereo unspecified) | 27% | 12.1% | 18.9%
– | – | – | – | CN(C)c1ccc(C2CC(c3ccc(-n4cncn4)cc3)=NN2C(=O)Cc2ccccc2)cc1 (stereo unspecified) | -6.9% | 2.9% | -4%
– | – | – | – | Cc1ccc(S(=O)(=O)N2N=C(c3ccc(-n4ccnc4)cc3)CC2c2ccc(N(C)C)cc2)cc1 (stereo unspecified) | 66% | 50.8% | 50.5%
– | – | – | – | CN(C)c1ccc(C2CC(c3ccc(-n4cncn4)cc3)=NN2C(=O)CCCl)cc1 (stereo unspecified) | -3.4% | 3.7% | -0.7%
– | – | – | – | CN(C)c1ccc(C2CC(c3ccc(-n4cncn4)cc3)=NN2S(=O)(=O)c2ccc(F)cc2)cc1 (stereo unspecified) | 24.1% | 12.1% | -0.5%
6.1 µM | > 10 µM | 9.6 µM | > 10 µM | CN1CCN(c2ccc(C3=NN(S(=O)(=O)c4ccc(F)cc4)C(c4ccc(N(C)C)cc4)C3)cc2)CC1 (stereo unspecified) | 92.3% | 15.7% | 95.7%
– | – | – | – | CN(C)c1ccc(C2CC(c3ccc(-n4ccnc4)cc3)=NN2C(=O)c2cc(Cl)cc(Cl)c2)cc1 (stereo unspecified) | 44.5% | 48.8% | 58.7%
– | – | – | – | Cc1ccc(C(=O)N2N=C(c3ccc(N4CCN(C)CC4)cc3)CC2c2ccc(N(C)C)cc2)cc1 (stereo unspecified) | -2.5% | -0.7% | -0.4%
– | – | – | – | CN1CCN(c2ccc(C3=NN(S(=O)(=O)c4ccc(OC(F)(F)F)cc4)C(c4ccc(N(C)C)cc4)C3)cc2)CC1 (stereo unspecified) | 70.8% | 10.6% | 26.5%
8.65 µM | > 10 µM | > 10 µM | > 10 µM | CN1CCN(c2ccc(C3=NN(S(=O)(=O)c4ccc(Br)cc4)C(c4ccc(N(C)C)cc4)C3)cc2)CC1 (stereo unspecified) | 87.1% | 23.7% | 70.8%

IC50 (HCC1806 [2]) | IC50 (HeLa) | IC50 (A549) | IC50 (HCT-116) | SMILES | inhibition at 10 µM (HCC1806 [1]) | inhibition at 10 µM (MDA-MB-231) | inhibition at 10 µM (NCI-H1975)
– | – | – | – | CN(C)c1ccc(C2CC(c3ccc(-n4ccnc4)cc3)=NN2S(C)(=O)=O)cc1 (stereo unspecified) | 11.3% | 12% | -3.8%
– | – | – | – | CN1CCN(c2ccc(C3=NN(C(=O)CCCl)C(c4ccc(N(C)C)cc4)C3)cc2)CC1 (stereo unspecified) | 1.7% | 2.4% | -0.2%
– | – | – | – | CN1CCN(c2ccc(C3=NN(S(=O)(=O)C4CC4)C(c4ccc(N(C)C)cc4)C3)cc2)CC1 (stereo unspecified) | 4.7% | 3.7% | 0.2%
9.05 µM | > 10 µM | > 10 µM | > 10 µM | CN1CCN(c2ccc(C3=NN(C(=O)/C=C/c4ccccc4)C(c4ccc(N(C)C)cc4)C3)cc2)CC1 (stereo unspecified) | 71% | 35.9% | 81%
– | – | – | – | COC(=O)CC(=O)N1N=C(c2ccc(-n3ccnc3)cc2)CC1c1ccc(N(C)C)cc1 (stereo unspecified) | 2.1% | 2.3% | -0.1%
– | – | – | – | COC(=O)CC(=O)N1N=C(c2ccc(N3CCN(C)CC3)cc2)CC1c1ccc(N(C)C)cc1 (stereo unspecified) | -8.3% | -0.4% | -2.2%
– | – | – | – | CN1CCN(c2ccc(C3=NN(S(C)(=O)=O)C(c4ccc(N(C)C)cc4)C3)cc2)CC1 (stereo unspecified) | -18.5% | 0.6% | -1.3%
– | – | – | – | CC(=O)N1N=C(c2ccc(-n3ccnc3)cc2)CC1c1ccc(N(C)C)cc1 (stereo unspecified) | -9.7% | 5% | -2.1%
– | – | – | – | Cc1ccc(S(=O)(=O)N2N=C(c3ccc(N4CCN(C)CC4)cc3)CC2c2ccc(N(C)C)cc2)cc1 (stereo unspecified) | 32.2% | 10.7% | 38.1%
– | – | – | – | CN(C)c1ccc(C2CC(c3ccc(-n4ccnc4)cc3)=NN2C(=O)c2ccc(C(F)(F)F)cc2)cc1 (stereo unspecified) | 28% | 17.9% | 15%
– | – | – | – | CN(C)c1ccc(C2CC(c3ccc(-n4cncn4)cc3)=NN2C(=O)/C=C/c2ccccc2)cc1 (stereo unspecified) | -3.7% | 8.5% | -2.3%
– | – | – | – | Cc1ccc(S(=O)(=O)N2N=C(c3ccc(-n4cncn4)cc3)CC2c2ccc(N(C)C)cc2)cc1 (stereo unspecified) | 27.7% | 20.7% | 20%
– | – | – | – | CN(C)c1ccc(C2CC(c3ccc(-n4cncn4)cc3)=NN2S(=O)(=O)c2ccc(C#N)cc2)cc1 (stereo unspecified) | 35.1% | 32.8% | 22.6%
– | – | – | – | CN1CCN(c2ccc(C3=NN(C(=O)c4ccc(F)cc4)C(c4ccc(N(C)C)cc4)C3)cc2)CC1 (stereo unspecified) | 31.8% | 3.5% | 32.2%
– | – | – | – | CN(C)c1ccc(C2CC(c3ccc(-n4ccnc4)cc3)=NN2C(=O)CCCl)cc1 (stereo unspecified) | -5.2% | 2.1% | -2.5%
– | – | – | – | CN(C)c1ccc(C2CC(c3ccc(-n4cncn4)cc3)=NN2C(=O)c2cc(Cl)cc(Cl)c2)cc1 (stereo unspecified) | 5.3% | 9.4% | 8.4%
– | – | – | – | CN(C)c1ccc(C2CC(c3ccc(-n4cncn4)cc3)=NN2S(=O)(=O)c2ccc(Br)cc2)cc1 (stereo unspecified) | 26.3% | 10.4% | -0.6%
– | – | – | – | CN(C)c1ccc(C2CC(c3ccc(-n4ccnc4)cc3)=NN2C(=O)Cc2ccccc2)cc1 (stereo unspecified) | 2% | 7.2% | -5.5%
– | – | – | – | CN(C)c1ccc(C2CC(c3ccc(-n4ccnc4)cc3)=NN2S(=O)(=O)c2ccc(C#N)cc2)cc1 (stereo unspecified) | 4.7% | 7.1% | 0.7%
– | – | – | – | CN1CCN(c2ccc(C3=NNC(c4ccc(N(C)C)cc4)C3)cc2)CC1 (stereo unspecified) | 31.2% | 11.4% | 2.4%
– | – | – | – | CN(C)c1ccc(C2CC(c3ccc(-n4cncn4)cc3)=NN2C(=O)c2ccc(C(F)(F)F)cc2)cc1 (stereo unspecified) | 7% | 16.7% | 11.5%
– | – | – | – | CN(C)c1ccc(C2CC(c3ccc(-n4ccnc4)cc3)=NN2C(=O)c2ccc(F)cc2)cc1 (stereo unspecified) | 7.1% | 9.4% | -3.5%
